Source: article PMC10065799, “High-throughput profiling of sequence recognition by tyrosine kinases and SH2 domains using bacterial peptide display” (eLife, 2023)

Target: c-Src kinase domain (Homo sapiens, UniProt P12931)
Assay: RP-HPLC assay to measure peptide phosphorylation kinetics
Type: biochemical
Details: purified peptide substrate
Procedure: To validate the enrichment scores observed in the c-Src screening data, the phosphorylation rates were measured in vitro with the purified catalytic domain of c-Src and synthetic 11-residue peptides derived from sequences in the pTyr-Var library. […] Reactions were initiated by adding 1 mM ATP. At various time points, 100 μL aliquots were removed and quenched by the addition of EDTA to a final concentration of 25 mM. Each time point sample was analyzed by analytical RP-HPLC, monitoring absorbance at 214 nm. Forty μL of each time point was injected onto a C18 column (ZORBAX 300 SB-C18, 5 μm, 4.6x150 mm). The solvent system used was water with 0.1% trifluoroacetic acid (solvent A) and acetonitrile with 0.1% trifluoroacetic acid (solvent B). […] The fractional product peak area was plotted as a function of reaction time, and the initial linear regime of this plot was fitted to a straight line to determine a reaction rate. Rates were corrected for substrate and enzyme concentration. Reactions were done in triplicate or quadruplicate.

Phosphorylation Rate: 0.892 s⁻¹
Substance: Ac-VASSLYDILAR-NH2 [GLB1_Y294]
